Source: patent US20130023504A1, “Modulation of Prostaglandin/Cyclooxygenase Metabolic Pathways” (HUNTER-FLEMING LIMITED, priority 2006, published 2013)
Marks after values point to notes of the source that are not given here.

Experiments:
Type in all cases: cell-based
[1] = tested on: COX-2 mRNA; assay: COX-2 mRNA in human PBMC with and without TNF-α, quantitative RT-PCR
Description: (§1) Whole blood was collected from donors in EDTA-supplemented pouches at the Etablissement Français du Sang (Brest, France). The PBMC were isolated then from whole blood under sterile conditions within 36 hours after collection. Gradient density centrifugation was carried out on Ficoll (Eurobio). After washing in RPMI 1640 medium (Eurobio), cells were suspended in RPMI 1640 medium supplemented with 10% heat-inactivated fetal calf serum (Eurobio), 2 mM glutamine (D. Dutscher), 100 U of penicillin/ml (D. Dutscher), and 100 μg of streptomycin/ml (D. Dutscher). Monocytes were selected by plastic adherence for 1 h and approximately 10^7 cells were plated in 6-well tissue culture plates (3 mL medium per well). All incubations were performed in a humidified incubator at 37° C. and 5% CO2. Cells were recovered and dispersed in 2 ml fresh incubation medium supplemented with either 7β-hydroxyEPIA, 7β-hydroxy-DHEA, or 7α-hydroxy-DHEA (in 20 μL ethanol) in the presence or absence of 0.01 μg/mL TNF-α (Sigma-Aldrich). Control incubations contained 20 μl ethanol but no steroid. Supernatants were collected after 4 h and 24 hours incubations for measurement of their PG contents and cells were used for subsequent RNA isolation. A single step extraction method using the Trizol Reagent (Invitrogen, Cergy-Pontoise, France) provided total RNA.
(§2) cDNAs were synthesized from TURBO DNase I—treated RNA (Ambion, Huntingdon, UK) using the Superscript first strand synthesis system kit (Invitrogen). RT-PCR amplification mixtures (50 μL) contained 2.5× RealMaster Mix/20×SYBR solution (11.25 μL) (Eppendorf, Le Pecq, France) and 200 nM forward and reverse primers. Reactions were run on a RealPlex ep gradient S mastercycler (Eppendorf). The cycling conditions were 10 minutes at 95° C. and 45 cycles at 95° C., 55° C. and 68° C. for 15 seconds, 30 seconds and 30 seconds, respectively. Each assay included a standard curve of four serial dilution points of control cDNA. The HPRT1 housekeeping gene was used for quantification. All oligonucleotide primers (Table 2) were synthesized by Genecust/Distribio (Evry, France). The specificity of the amplified product was monitored by examining the melting curve of the product and confirmed by analysis on agarose gel electrophoresis.
(§3) All assays were carried out in triplicate and results were plotted as mean±S.E.M. One-way analysis of variance was performed followed by Duncan's multiple range tests in order to compare the differences between groups. Differences were considered statistically significant when p<0.05.

[2] = tested on: human PBMC; assay: PG levels (PGE2, PGD2, 15d-PGJ2) in culture medium of human PBMC cultured with and without TNF-α, EIA (Example 3)
Description: as §1
Commercially available EIA kits were used for the determination of PGE2 levels (Oxford Biomedical Research, UK) and 15d-PGJ2 levels (Assay designs, Euromedex, France) in culture media. Measurement of PGD2 levels was obtained using the prostaglandin D2-MOX EIA kit (Cayman Chemical, Euromedex). In this case, and prior to assay, the fresh samples were immediately treated with the MOX-HCl reagent, which converted PGD2 into PGD2-MOX, thus preventing any further chemical degradation.
as §3

[3] = tested on: m-PGES1 mRNA; assay: m-PGES1 mRNA in human PBMC with and without TNF-α, quantitative RT-PCR
Description: as §1, §2, §3

[4] = 100 nM + TNF-α (10 ng/mL), 24 h

`CC12CCC3C(C1CCC2=O)[C@H](O)C=C1C[C@@H](O)CCC13C` (stereo partly drawn) [7α-hydroxy-DHEA, 7α-hydroxy-dehydroEPIAndrosterone] was tested, and the “COX-2 (mRNA), mRNA production relative to controls” value ([1]; 1 nM + TNF-α (10 ng/mL), 4 h) was 4.72 ± 1.229^a, the “COX-2 (mRNA), mRNA production relative to controls” value ([1]; 1 nM, 4 h, without TNF-α) was 0.56 ± 0.072^b and the “COX-2 (mRNA), mRNA production relative to controls” value ([1]; 1 nM, 24 h, without TNF-α) was 0.82 ± 0.27^b. For the same compound, the “COX-2 (mRNA), mRNA production relative to controls” value ([1]; 10 nM + TNF-α (10 ng/mL), 4 h) was 3.70 ± 1.246^a, the “COX-2 (mRNA), mRNA production relative to controls” value ([1]; 10 nM, 4 h, without TNF-α) was 0.94 ± 0.048 and the “COX-2 (mRNA), mRNA production relative to controls” value ([1]; 10 nM, 24 h, without TNF-α) was 1.66 ± 0.408^a. The “COX-2 (mRNA), mRNA production relative to controls” value ([1]; 100 nM, 4 h, without TNF-α) was 1.10 ± 0.108, the “COX-2 (mRNA), mRNA production relative to controls” value ([1]; 100 nM, 24 h, without TNF-α) was 1.05 ± 0.214 and the 15d-PGJ2 ([2]; 1 nM + TNF-α (10 ng/mL), 4 h) was 0.37 ± 0.020 ng/mL. For the same compound, the PGD2 ([2]; 1 nM + TNF-α (10 ng/mL), 4 h) was 0.20 ± 0.003 ng/mL, the PGE2 ([2]; 1 nM + TNF-α (10 ng/mL), 4 h) was 0.43 ± 0.003 ng/mL and the 15d-PGJ2 ([2]; 1 nM + TNF-α (10 ng/mL), 24 h) was 0.63 ± 0.007^d ng/mL. For the same compound, the PGE2 ([2]; 1 nM + TNF-α (10 ng/mL), 24 h) was 1.53 ± 0.048^c ng/mL, the 15d-PGJ2 ([2]; 1 nM, 4 h, without TNF-α) was 0.46 ± 0.004 ng/mL and the PGD2 ([2]; 1 nM, 4 h, without TNF-α) was 0.17 ± 0.004 ng/mL. The PGE2 ([2]; 1 nM, 4 h, without TNF-α) was 0.22 ± 0.006 ng/mL, the 15d-PGJ2 ([2]; 1 nM, 24 h, without TNF-α) was 0.51 ± 0.013^a ng/mL and the PGD2 ([2]; 1 nM, 24 h, without TNF-α) was 0.13 ± 0.001 ng/mL. The PGE2 ([2]; 1 nM, 24 h, without TNF-α) was 0.23 ± 0.003 ng/mL, the 15d-PGJ2 ([2]; 10 nM + TNF-α (10 ng/mL), 4 h) was 0.40 ± 0.004 ng/mL and the PGD2 ([2]; 10 nM + TNF-α (10 ng/mL), 4 h) was 0.17 ± 0.006 ng/mL. The PGE2 ([2]; 10 nM + TNF-α (10 ng/mL), 4 h) was 0.45 ± 0.012 ng/mL, the 15d-PGJ2 ([2]; 10 nM + TNF-α (10 ng/mL), 24 h) was 0.71 ± 0.012^d ng/mL and the PGE2 ([2]; 10 nM + TNF-α (10 ng/mL), 24 h) was 1.75 ± 0.052^c ng/mL. It also gave a 15d-PGJ2 ([2]; 10 nM, 4 h, without TNF-α) of 0.42 ± 0.010 ng/mL, a PGD2 ([2]; 10 nM, 4 h, without TNF-α) of 0.18 ± 0.002 ng/mL and a PGE2 ([2]; 10 nM, 4 h, without TNF-α) of 0.22 ± 0.006 ng/mL. For the same compound, the 15d-PGJ2 ([2]; 10 nM, 24 h, without TNF-α) was 0.59 ± 0.003^a ng/mL, the PGD2 ([2]; 10 nM, 24 h, without TNF-α) was 0.17 ± 0.003 ng/mL and the PGE2 ([2]; 10 nM, 24 h, without TNF-α) was 0.30 ± 0.006 ng/mL. The 15d-PGJ2 ([2]; 100 nM + TNF-α (10 ng/mL), 4 h) was 0.41 ± 0.021 ng/mL, the PGD2 ([2]; 100 nM + TNF-α (10 ng/mL), 4 h) was 0.18 ± 0.001 ng/mL and the PGE2 ([2]; 100 nM + TNF-α (10 ng/mL), 4 h) was 0.39 ± 0.009 ng/mL. For the same compound, the 15d-PGJ2 [2, 4] was 0.51 ± 0.012^d ng/mL, the PGE2 [2, 4] was 1.40 ± 0.037^c ng/mL and the 15d-PGJ2 ([2]; 100 nM, 4 h, without TNF-α) was 0.41 ± 0.004 ng/mL. The PGD2 ([2]; 100 nM, 4 h, without TNF-α) was 0.17 ± 0.003 ng/mL, the PGE2 ([2]; 100 nM, 4 h, without TNF-α) was 0.22 ± 0.005 ng/mL and the 15d-PGJ2 ([2]; 100 nM, 24 h, without TNF-α) was 0.58 ± 0.024^a ng/mL. The PGD2 ([2]; 100 nM, 24 h, without TNF-α) was 0.13 ± 0.002 ng/mL, the PGE2 ([2]; 100 nM, 24 h, without TNF-α) was 0.25 ± 0.012 ng/mL and the “mPGES1 (mRNA), mRNA production relative to controls” value ([3]; 1 nM + TNF-α (10 ng/mL), 24 h) was 21.5 ± 6.66^a. The “mPGES1 (mRNA), mRNA production relative to controls” value ([3]; 1 nM, 4 h, without TNF-α) was 0.76 ± 0.053, the “mPGES1 (mRNA), mRNA production relative to controls” value ([3]; 1 nM, 24 h, without TNF-α) was 1.77 ± 0.324^a and the “mPGES1 (mRNA), mRNA production relative to controls” value ([3]; 10 nM + TNF-α (10 ng/mL), 24 h) was 24.9 ± 10.30^a. The “mPGES1 (mRNA), mRNA production relative to controls” value ([3]; 10 nM, 4 h, without TNF-α) was 0.94 ± 0.067, the “mPGES1 (mRNA), mRNA production relative to controls” value ([3]; 10 nM, 24 h, without TNF-α) was 3.61 ± 0.662^a and the “mPGES1 (mRNA), mRNA production relative to controls” value [3, 4] was 25.4 ± 6.96^a. The “mPGES1 (mRNA), mRNA production relative to controls” value ([3]; 100 nM, 4 h, without TNF-α) was 0.71 ± 0.058 and the “mPGES1 (mRNA), mRNA production relative to controls” value ([3]; 100 nM, 24 h, without TNF-α) was 2.63 ± 0.475^a.
